Experimental data as given in US20230192715A1 (priority 2020, published 2023).

How the values were obtained:
mRNA for NMDAR1 = conditions: in vitro; cited from earlier work
BDNF = conditions: humans; plasma, healthy volunteers, 14-day Phase 1 study; cited from earlier work
[1] = Double-blind placebo controlled randomized clinical trial in major depressive disorder; type: in vivo, human
PD95, GluR1 = conditions: in vivo; cited from earlier work
serotonin receptors = conditions: Rickli et al, 2018; cited from earlier work

| SMILES | mRNA for NMDAR1 (mRNA for NMDAR1) | BDNF (BDNF) | persistence of remission ([1]; after discontinuation of treatment) | patients with remission of disease (MADRS<10) ([1]; within the first week of treatment, 5% in patients randomized to placebo) | levels of PD95, GluR1 (PD95, GluR1) | actions at serotonin receptors (serotonin receptors) |
| --- | --- | --- | --- | --- | --- | --- |
| CCC(=O)C(C[C@H](C)N(C)C)(c1ccccc1)c1ccccc1 [Dextromethadone] | increases mRNA for NMDAR1 | increases BDNF | persisted for at least seven days after discontinuation of treatment | over 30% | increases levels of PD95, GluR1 | – |
| CN1CC[C@@]23c4c5ccc(O)c4O[C@@H]2[C@H](O)C=C[C@@H]3[C@@H]1C5 [Levomorphine] | – | – | – | – | – | no actions at serotonin receptors |
